Data as given in patent US6610694B1, “Condensed pyridazine compounds, their production and use” (Takeda Chemical Industries, Ltd., priority 1998, dated 2003).
Structures can show the parent of a compound that is named as a salt.

What was measured:
guinea pig eosinophils = assay: Suppression of LTB4-induced chemotactic reaction in guinea pig eosinophils; format: cell-based
Procedure: 1) Preparation of Guinea Pig Eosinophils
To male Hartley guinea pigs, 2 ml of equine serum (Bio-Whittaker, Inc.) was intraperitoneally administered once weekly for 8 consecutive weeks. At 48 hours after final administration, 75 ml of physiological saline was intraperitoneally injected, after which the saline was recovered and centrifuged at 400×g for 5 minutes. The resulting sediment was suspended in 5 ml of Percoll solution (density (d)=1.07) and layered on top of the multiple layers of different densities of Percoll solution (density(d)=1.112, 5 ml; d=1.095, 10 ml; d=1.090, 10 ml; d=1.085, 5 ml), followed by centrifugation at 1,000×g for 25 minutes (20° C.). The cell layer formed at the interface between densities 1.112 and 1.095 was collected. Erythrocytes present in the collected cell sediment were removed by hypotonic treatment (suspended in water for […]).
The cell sediment was washed 3 times with Hanks' solution containing 10 mM Hepes (Dojin Kagaku) (Hanks-Hepes) and suspended in a Hanks-Hepes solution containing 2% human serum albumin (Wako Pure Chemical Industry or Sigma) (Hanks-Hepes-HSA) to a final concentration of 5.56×10^6 cells/ml. Eosinophil purity was 90%, viability being over 98%.
2) Determination of Chemotactic Reaction Suppression
To a 24-well petri dish, which serves as a lower chamber, 600 μl of Hanks-Hepes-HSA solution containing LTB4 (final concentration 10^−8 M, Cascade Biochemical Ltd.), was transferred, followed by incubation at 37° C. for 30 minutes in a carbon dioxide incubator. Separately, 200 μl of eosinophil suspension (5×10^6 cells/ml), previously incubated at 37 C for 15 minutes, was added to Chemotaxicell (polycarbonate membrane, pore size 3 μm, thickness 10 μm), which serves as an upper chamber, after the upper chamber was attached to the 24-well petri dish. After 2 hours of reaction in the CO2 incubator, the Chemotaxicell was removed; 60 μl of a 2% (w/v) solution of EDTA in physiological saline was added to the liquid in the lower chamber. After the mixture was on cooled ice, the cells migrating into the lower chamber were counted using a blood cell counter [Coulter Counter (trade name)]. The test drug, dissolved in N,N-dimethyl formamide (DMF), was added to both the upper and lower chambers to a final concentration of 10^-5 M.
Chemotactic reaction suppression rate=[1−(number of migrating cells in the presence of drug/number of migrating cells in the absence of drug).]×100 Equation 2
Suppression rates of LTB4-induced chemotactic reaction by test substances (1×10^−5 M) were calculated using the above equation.
In the same manner as Experimental Example 2a, the percent suppression of LTB4-induced chemotactic reactions by various example compounds was calculated.

[1] = system: histamine-induced skin reactions in guinea pigs; assay: Effect on histamine-induced skin reactions in guinea pigs (skin vascular permeability); format: in vivo, guinea pig; details: oral 3 mg/kg
Procedure: Effect on Histamine-induced Skin Reactions in Guinea Pigs
Male Hartley guinea pigs weighing about 500 g were used. After the dorsal hair was shaved under ether anesthesia, 1 ml of a 2.5% pontamine sky blue solution was injected intravenously administered, and then 0.1 ml of histamine at 3 μg/ml was injected intradermally into 2 sites (left and right) in the back. Thirty minutes after the injection of histamine, the animals were killed by bleeding and the skin was removed. Two perpendicular diameters (mm) of each blue spot on the inside of the skin were measured and multiplied; the mean for the two products was taken as the microvascular permeability index. Test compounds were suspended in a 5% gum arabic solution and orally administered in a volume of 0.2 ml/100 g body weight 1 hour before histamine administration. Animals in the control group received the same volume of a 5% gum arabic solution. The suppression rate of the sample for the title reaction was calculated using Equation 1, and the results are given in Table 1.
Inhibition (%) of histamine-induced skin reactions=100×(1−vascular permeability index in the presence of drug/vascular permeability index in control group) Equation 1
In the same manner as Experimental Example 1a, the effects of various example compounds on histamine-induced skin reactions in guinea pigs were examined.

[2] = LTB4 10^−8 M-induced chemotaxis, test substance 1×10^−5 M, Table 2
[3] = 1 hour before intradermal histamine, Table 1
[4] = LTB4-induced chemotaxis, same manner as Experimental Example 2a (1×10^−5 M), Table 4
[5] = same manner as Experimental Example 1a, Table 3

Row | Structure (SMILES) | Suppression rate (%) (guinea pig eosinophils; [2]) | Suppression (%) of histamine-induced skin vascular permeability elevation, oral administration at 3 mg/kg [1, 3] | Suppression rate (%) (guinea pig eosinophils; [4]) | melting point | Suppression (%) of histamine-induced skin vascular permeability elevation, oral administration at 3 mg/kg [1, 5]
1 | c1ccc(C(OC2CCN(CCCCCCOc3ccc4nncn4n3)CC2)c2ccccc2)cc1 [Example 7a, 6-[6-[4-(Diphenylmethoxy)piperidino]hexyloxy][1,2,4]triazolo[4,3-b]pyridazine Fumarate] | 36% | 89% |  |  | 
2 | CCOC(=O)Cn1nc2ccc(NCCCN3CCC(OC(c4ccccc4)c4ccccc4)CC3)nn2c1=O [Example 7b, ethyl 2-[6-[3-[4-(Diphenylmethoxy)piperidino]propylamino]-3-oxo[1,2,4]triazolo[4,3-b]pyridazin-2(3H)-yl]acetate] |  |  | 26% | 137 to 139 °C | 89%
3 | CCOC(=O)C(C)(C)n1nc2ccc(NCCCN3CCC(OC(c4ccccc4)c4ccccc4)CC3)nn2c1=O.Cl [Example 8b, Ethyl 2-[6-[3-[4-(Diphenylmethoxy)piperidino]propylamino]-3-oxo[1,2,4]triazolo[4,3-b]pyridazin-2(3H)-yl]-2-methylpropionate Hydrochloride] |  |  | 57% | 162 °C | 74%
4 | c1ccc(C(OC2CCN(CCCCCCNc3ccc4nncn4n3)CC2)c2ccccc2)cc1 [Example 10a, 6-[6-[4-(Diphenylmethoxy)piperidino]hexylamino][1,2,4]triazolo[4,3-b]pyridazine] | 60% | 91% |  | 124 to 127 °C | 
5 | CC(C)(C)c1nnc2ccc(OCCCN3CCC(OC(c4ccccc4)c4ccccc4)CC3)nn12 [Example 13a, 3-tert-Butyl-6-[3-[4-(diphenylmethoxy)piperidino]propoxy][1,2,4]triazolo[4.3-b]pyridazine] | 41% | 79% |  |  | 
6 | O=C(O)c1nnc2ccc(NCCCN3CCC(OC(c4ccccc4)c4ccccc4)CC3)nn12 [Example 22a, 6-[3-[4-(Diphenylmethoxy)piperidino]propylamino][1,2,4]triazolo[4,3-b]pyridazine-3-carboxylic Acid] | 50% | 86% |  | 102 to 104 °C | 
